Results reported in publication PMC12274739, “Differential substrate degradation by super-degron: EGFP in wild-type mouse cells, PD-1 requires CRBN humanization” (iScience, 2025).
Where “and” joins values, the source holds several entries; their conditions need not be identical. Identical values can stand only once. Like-named read-outs stand apart in the source and are kept apart here.

Experiments:
[1] = Histopathological examination of organs; type: in vivo, mouse; settings: Pdcd1SD/SD/CrbnI391V/I391V mice with MC-38 inoculation and IBR treatment
Experimental: The important functions of PD-1 are to suppress autoimmunity, and depletion or suppression of PD-1 leads to autoimmune diseases.[37]
Mice were sacrificed under deep anesthesia then all organs were isolated and immediately immersed in 10% buffered neutral formalin. After fixation for 48 h, tissues were processed as formalin-fixed paraffin-embedded blocks and sliced into 3 μmμ sections, followed by hematoxylin and eosin (HE) staining, periodic acid Schiff (PAS) staining, and Elastica-Masson Goldner staining. All slides were analyzed by a skilled pathologist (T.M.). Glomerular lesions were evaluated using the histological glomerular index, and other organs were scored from 0 (normal) to 3 (necrotic, severe organ injury).
Figure S11 Histological analysis of super degron tag-knockin mice for autoimmune […]
Representative histological manifestations of kidney (A-C), liver (D-F) and large intestine (G-I) of Pdcd1SD/SD/CrbnI391V/I391V mice (A, D and G), Pdcd1+/+/CrbnI391V/I391V mice (B, E and H) and […]
Liver and large intestine manifested normal histological findings in each group (A-C: PAS stain, d-i: HE stain, Bar = 25 µm in A-C, 100 µm in D-I).
(1 picture or pasted object on this page, not shown here)
Figure S12 Glomerular index of super degron tag-knockin mice
Glomerular index of each group of mice. […]
higher index nevertheless there were no statistically significant differences among

SD-EGFP [2] = target: SD-EGFP (Aequorea victoria, UniProt P42212, F64L/H231L/S65T); settings: rat ESCs, stable
SD-EGFP [3] = target: SD-EGFP (Mus musculus, UniProt P42212+Q8C7D2, F64L/H231L/INS1V/S65T, form not given); type: cell-based
PD-1-SD = assay: Exogenous PD-1-SD degradation in mESCs; type: cell-based, mouse
Experimental: The dotted lines show an isotype control without IBR. […] The dotted lines show an isotype control without IBR. […] The black lines show isotype control without IBR. […] Red lines show the boundary between positive and negative. […] (B–J) IBR or solvent (−) was added to cultured splenocytes (B–G) or mESCs (H–J). […] The concentration is 0.1 μM in the rightmost bar in each group, and the left neighbor is a step dilution of one-tenth. Intensities of anti-PD-1-FITC on CD4^+ and CD8^+ T cells were measured by flow cytometry, and the geometric means of fluorescence intensities (MFI) were calculated. The MFI of the isotype control of anti-PD-1-FITC was subtracted from each MFI of anti-PD-1-FITC. The dots indicate the results of the experiment for each of the three samples from different individuals.
To determine whether the same phenomenon occurs in non-T cells, exogenous PD-1 degradation was examined in mESCs transfected with PD-1-SD expression vectors (Figures 6H–6J and S6E). […] We hypothesized that the degradation efficiency of membrane-localized proteins might be reduced in mouse-type CRBNs. Therefore, we expressed EGFP-SDs with membrane-localized peptides attached to their N-termini in mESCs and added IBR. The degradation efficiency of EGFP-SD with membrane-localization peptide[32] […] Therefore, Pdcd1^SD/SD/Crbn^I391V/I391V mice were used for further analyses.

SD-tagged EGFP = assay: Degradation of SD-tagged EGFP in Crbn−/− (CRBN-KO) mESCs; type: cell-based, mouse; settings: IBR up to 1 μM, 24 h
[4] = parameters: method as in PMID 31125896; settings: BALB/c mice, oral; cited from earlier work
EGFP-SD (C-terminal SD) [5] = type: cell-based, mouse; settings: Crbn+/I391V mESCs (h/mCRBN), transient, 24 h
EGFP-SD (C-terminal SD) [6] = target: EGFP-SD (C-terminal SD) (Aequorea victoria, UniProt P42212, F64L/H231L/S65T); type: cell-based, mouse; settings: transient, 24 h; for DC50: read-out: DC50, EGFP-SD
[7] = tested on: mouse PD-1-mCherry-IKZF minimal tag; assay: Degradation of IKZF minimal-tagged mouse PD-1-mCherry in Jurkat cells; type: cell-based, human; settings: 24 h
Description: To identify a tag that could efficiently knock down mouse PD-1, we connected various degron tags to the C-terminus of PD-1, including IKZF1/3, Sall4, ZFP91, and SD, and generated Jurkat human T cell lymphoma cell lines that stably expressed the mouse PD-1-degron tag (Figure 1A). As reported previously,[21]^,[22]^,[23] in mouse CRBN, the 391st amino acid corresponding to Val-388 of human CRBN is Ile, which causes a protrusion when a neo substrate binds to CRBN, resulting in a weaker affinity than in human CRBN (Figure 1B). Therefore, a human cell line was used because it was thought that mouse CRBN would not degrade SD by thalidomide analogs. […] We also analyzed the degradation of total proteins using mCherry.
Figure 1 Degradation of various degron-tagged mouse PD-1 in human Jurkat cell line (A) The protein construction of PD-1 tagged with mCherry and a degron tag. […] Valine 388 in human CRBN (red on the left) is replaced by isoleucine in mouse CRBN (gray on the right, over the red valine), causing a conflict between CRBN and IKZF1/3 (yellow ellipse). The stretch of the methyl group in isoleucine causing the conflict is indicated by a yellow arrow. (C) The amount of PD-1 and mCherry fused to IKZF minimal (blue, n = 1), IKZF full length (light blue, n = 1), Sall4 (orange, n = 1) or super degron (SD; red, n = 3) tags in Jurkat human T cell lymphomas 24 h after the addition of pomalidomide (POM) measured by flow cytometry. […] (C and D) The amount was standardized with the sample to which no reagent was added as 1. Concentrations of reagents were 0 (−), 5, 10, and 20 μM for IKZF minimal, IKZF full-length, and Sall4 tags and 0 (−), 0.5, 5 μM for SD tag. The dots indicate the results of the experiment for each of samples.

[8] = tested on: mouse PD-1-mCherry-Sall4 tag; type: cell-based, human; settings: Jurkat, 24 h

O=C1CC[C@H](N2Cc3c(OCc4ccc(CN5CCOCC5)cc4)cccc3C2=O)C(=O)N1 [IBR, iberdomide]
histopathological organ injury [1]: no significant organ injury | Bottom, SD-EGFP (SD-EGFP [2]): 0.01454 | bottom vs top, SD-EGFP (SD-EGFP [2]; IBR up to 1 μM): 0.057 | DC50 (SD-EGFP [2]; read-out: DC50, SD-EGFP): 0.271 nM | bottom vs top, SD-EGFP (SD-EGFP [3]): 0.186 and 0.153 and 0.146 and 0.15 and 0.19 | level to which SD-EGFP was suppressed (SD-EGFP [3]): 20% | PD-1 degradation (PD-1-SD; Crbn+/+ mESCs transfected with PD-1-SD): barely degraded | PD-1 degradation (PD-1-SD; CrbnI391V/I391V mESCs transfected with PD-1-SD): degraded | degradation of SD-tagged EGFP (SD-tagged EGFP): did not occur | half-life (T1/2) [4]: 54 min | time of serum concentration peak [4]: 0.14 h | Bottom, EGFP-SD (EGFP/mCherry MFI) (EGFP-SD (C-terminal SD) [5]): 0.01502 | DC50 (EGFP-SD (C-terminal SD) [5]): 0.0707 nM | bottom vs top, EGFP-SD (EGFP-SD (C-terminal SD) [5]): 0.04 | Bottom, EGFP-SD (EGFP/mCherry MFI) (EGFP-SD (C-terminal SD) [6]; B6J-S1 mESCs): 0.03557 | bottom vs top, EGFP-SD (EGFP-SD (C-terminal SD) [6]; B6J-S1 mESCs): 0.10 | Bottom, EGFP-SD (EGFP/mCherry MFI) (EGFP-SD (C-terminal SD) [6]; Crbn+/+ mESCs (mCRBN)): 0.04584 | bottom vs top, EGFP-SD (EGFP-SD (C-terminal SD) [6]; Crbn+/+ mESCs (mCRBN)): 0.15 | Bottom, EGFP-SD (EGFP/mCherry MFI) (EGFP-SD (C-terminal SD) [6]; CrbnI391V/I391V mESCs (hCRBN)): 0.007275 | bottom vs top, EGFP-SD (EGFP-SD (C-terminal SD) [6]; CrbnI391V/I391V mESCs (hCRBN)): 0.03 | DC50 (EGFP-SD (C-terminal SD) [6]; B6J-S1 mESCs): 0.815 nM | DC50 (EGFP-SD (C-terminal SD) [6]; Crbn+/+ mESCs (mCRBN)): 2.17 nM | DC50 (EGFP-SD (C-terminal SD) [6]; CrbnI391V/I391V mESCs (hCRBN)): 0.0654 nM

Nc1cccc2c1C(=O)N(C1CCC(=O)NC1=O)C2=O (centres unmarked) [POM, pomalidomide]
LogDC50, mCherry (mC) ([7]; mCherry): 0.04896 µM | Bottom, mCherry (mC) ([7]; mCherry, no reagent = 1): 0.8201 | LogDC50, PD-1 (FITC) ([7]; surface PD-1): 0.1515 µM | Bottom, PD-1 (FITC) ([7]; surface PD-1, no reagent = 1): 0.53 and 0.5295 | Bottom, PD-1 (FITC) ([8]; SALL4 tag, surface PD-1, no reagent = 1): 0.9333 | effect on protein levels ([8]; Sall4 tag): did not reduce protein levels
